These results are taken from patent US20110263539A1, “SHIP 1 MODULATOR COMPOUNDS” (THE UNIVERSITY OF BRITISH COLUMBIA, priority 2006, published 2011).

Experiment [1] has as its system ΔC2 SHIP. Briefly: SHIP enzyme assay with C2 domain deleted SHIP. The format is biochemical. The settings on record: PI-3,4-P2 20 μM or Compound 100 3 μM, 30 μM IP4. An excerpt: A His6 tagged SHIP ΔC2 domain deletion mutant (deleting residues 725 to 863) in the mammalian expression vector pME18S was generated by a standard PCR-based methodology. An N-terminal His6 C2 domain construct was also generated by PCR inserted into the pET28C bacterial expression vector using EcoRI and NdeI restriction sites.
The allosteric regulation of enzymes has remained under-appreciated primarily because allosteric effectors are not easy to find. The molecular mechanism by which Compound 100 activated SHIP was investigated, first by performing classical enzyme kinetic analysis of its phosphatase activity. Activity measurements were performed with substrate concentrations from 10-100 μM.
The SHIP protein contains a C2 domain located at the carboxyterminal end of its phosphatase domain. […] SHIP lacking its the C2 domain (ΔC2 SHIP) was prepared.

Experiment [2] relates to SHIP+/+ bone marrow derived macrophages. Briefly: LPS stimulation of SHIP+/+ bone marrow derived macrophages. The format is cell-based, mice. How it is done:
Bone marrow cells were aspirated from 4 to 8 week old C57B16×129Sv mixed background mice and SHIP and SHIP cells prepared as described previously. Bone marrow derived macrophages from SHIP^+/+ and SHIP^−/− mice were obtained and maintained in IMDM supplemented with 10% FCS, 150 μM MTG, 2% C127 cell conditioned medium as a source of macrophage colony stimulating factor (M-CSF) (macrophage medium)
LPS stimulation of macrophages. For the analysis of LPS-stimulated TNFα production, 2×10^5 cells were plated the night before in 24 well plates in macrophage medium. The next day, the medium was changed and AQX-016A or carrier was added to cells at the indicated concentrations for 30 min prior to the addition of 10 ng/mL LPS. Supernatants were collected for TNFα determination by ELISA (BD Biosciences, Mississauga, ON, Canada). For analysis of intracellular signaling, 2×10^6 cells were plated the night before in 6 cm tissue culture plates. The next day, the cells were cultured in macrophage medium without M-CSF for 1 hr at 37° C. and then pretreated with AQX-016A or carrier for 30 min prior to the addition of 10 ng/mL LPS for 15 min. Cells were washed with 4° C. PBS and resuspended in lysis buffer (50 mM Hepes, 2 mM EDTA, 1 mM NaVO4, 100 mM NaF, 50 mM NaPPi and 1% NP40) supplemented with Complete Protease Inhibitor Cocktail (Roche, Montreal, Canada). Lysates were rocked at 4° C. for 30 min and clarified by centrifuging 20 min at 12000×g. Lysates were then made 1× in Laemmli's buffer, boiled 2 min and loaded onto 7.5% SDS polyacrylamide […]. Immunoblot analysis for phospho PKB (Cell Signalling, Mississauga, Ont), SHIP and actin (Santa Cruz, Santa Cruz, Calif.) were carried out as described previously.
The target specificity and biological efficacy of AQX-016A were assessed by comparing AQX-016A's effects on PI3K-regulated processes in primary SHIP^+/+ vs SHIP^−/− macrophages and mast cells. […] LPS stimulation of macrophages is associated with a PIP3-dependent release of pro-inflammatory mediators such as TNFα. […]

The test system of experiment [3] is SHIP C2 domain. The experiment in a line: Protein lipid overlay assay. The format is binding. The settings on record: 4 μM Compound 100. How it is done: Protein lipid overlay (PLO) assays were performed essentially as described with minor modifications. Lyophilized phosphatidylinositol-3,4-bisphosphate diC16 (PIP2, Echelon Biosciences, Salt Lake City, Utah) was reconstituted in a 2:1.8 solution of methanol and water. PVDF membranes (Millipore, Missisauga, Ont) were initially wetted in methanol for 1 minute, and washed 3×5 min with water, and gently agitated in TBST buffer (20 mM Tris pH 7.5, 0.15 M NaCl (TBS) with 0.05% Tween 20) at 23° C. overnight. Treated membranes were air-dried and dilutions of reconstituted lipids were spotted in 1 μl aliquots to give the indicated amount of PIP2 per membrane spot. Membranes were dried completely and blocked with blocking buffer (3% BSA in TBS with 0.05% NaN3) for 1 h at 23° C. Purified, recombinant C2 domain was diluted into blocking buffer (5 μM final) and treated with 4 μM Compound 100 or EtOH control for 30 min at 23° C. prior to overnight incubation with the PIP2 spotted membranes. […] After washing, bound proteins were detected and quantified on a Li-Cor Odyssey scanner (Lincoln, Nebr.).
Isolated recombinant, His6-tagged C2 domain was expressed and its PI-3,4-P2 binding ability was determined using protein lipid overlay assays. Purified C2 domain was incubated with membrane strips spotted with PI-3,4-P2 and bound protein detected using an anti-His6 antibody. […]

Take `Cc1cc(O)cc2c1[C@]1(C)CCC3C(C)(C)CCC[C@]3(C)[C@H]1C2` (stereo partly shown) [Compound 100]: the “ΔC2 SHIP enzyme activity” value in experiment [1] is recorded as “could not be enhanced”. Besides, the “inhibition of TNFα production, SHIP+/+ vs SHIP−/− macrophages” value in experiment [2] (LPS stimulated) is “selectively inhibited”. Besides, the “EC50 for inhibition of TNFα production” value in experiment [2] (LPS stimulated SHIP+/+ macrophages) is “submicromolar”. Also, in experiment [3], the “binding of C2 domain to PI-3,4-P2” value was “inhibited”.
